From publication PMC12121777 (PLOS One, 2025) come the findings set out here.

In brackets after ≈: the same amount, converted by molar mass. Where two headings read alike, the source gives them in different places.

What all share (assay): microbe, parasite or virus in culture
Format in all cases: cell-based

One test concerns Mtb 9449/2007. The note with it: Mycobacterium tuberculosis, read-out: MIC Mtb 9449/2007.
The subject of the next test is Mtb 234/2005. The note with it: Mycobacterium tuberculosis, read-out: MIC Mtb 234/2005.
In a further test the test system is Mtb 7357/1998. The note with it: Mycobacterium tuberculosis, read-out: MIC Mtb 7357/1998.
In a further test the test system is Mtb Praha 4. The note with it: Mycobacterium tuberculosis, read-out: MIC Mtb Praha 4.
A further test concerns Mtb Praha 131. The note with it: Mycobacterium tuberculosis, read-out: MIC Mtb Praha 131.
For another test, the system named is Mtb 8666/2010. The note with it: Mycobacterium tuberculosis, read-out: MIC Mtb 8666/2010.
A further test concerns Mtb Praha 1. The note with it: Mycobacterium tuberculosis, read-out: MIC Mtb Praha 1.

With `CCCCCCCCCCCCNc1nnc(-c2cc([N+](=O)[O-])cc([N+](=O)[O-])c2)s1` [Compound 5s, 5-(3,5-Dinitrophenyl)-N-dodecyl-1,3,4-thiadiazol-2-amine], the MIC amounted to 1 µM (≈ 0.436 µg/mL) in the test on Mtb 9449/2007 (9449/2007, 336 h); 2 µM (≈ 0.871 µg/mL) with Mtb 9449/2007 (9449/2007, 504 h); 0.5 µM (≈ 0.218 µg/mL) with Mtb 234/2005 (234/2005, 336 h); 1 µM (≈ 0.436 µg/mL) in the test with Mtb 234/2005 (234/2005, 504 h); 0.5 µM (≈ 0.218 µg/mL) in the test with Mtb 7357/1998 (7357/1998, 336 h); 1 µM (≈ 0.436 µg/mL) in the test with Mtb 7357/1998 (7357/1998, 504 h). Further, the MIC in the test on Mtb Praha 4 (PRAHA4, 336 h) was 1 µM (≈ 0.436 µg/mL); with Mtb Praha 4 (PRAHA4, 504 h) it was 1 µM (≈ 0.436 µg/mL); in the test with Mtb Praha 131 (PRAHA131, 336 h) it was 1 µM (≈ 0.436 µg/mL); with Mtb Praha 131 (PRAHA131, 504 h), 1 µM (≈ 0.436 µg/mL); in the test on Mtb 8666/2010 (8666/2010, 336 h), 0.5 µM (≈ 0.218 µg/mL); in the test with Mtb 8666/2010 (8666/2010, 504 h), 1 µM (≈ 0.436 µg/mL). Besides, the MIC worked out at 1 µM (≈ 0.436 µg/mL) in the test on Mtb Praha 1 (PRAHA1, 336 h) and 1 µM (≈ 0.436 µg/mL) in the test with Mtb Praha 1 (PRAHA1, 504 h).
Turning to `CCCCCCCCNC(=O)NNC(=O)c1cc([N+](=O)[O-])cc([N+](=O)[O-])c1` [Compound 4h, 2-(3,5-Dinitrobenzoyl)-N-octylhydrazine-1-carboxamide], the MIC worked out at 1 µM (≈ 0.381 µg/mL) with Mtb 9449/2007 (9449/2007, 336 h); 1 µM (≈ 0.381 µg/mL) with Mtb 9449/2007 (9449/2007, 504 h); 1 µM (≈ 0.381 µg/mL) with Mtb 234/2005 (234/2005, 336 h); 1 µM (≈ 0.381 µg/mL) in the test on Mtb 234/2005 (234/2005, 504 h); 1 µM (≈ 0.381 µg/mL) with Mtb 7357/1998 (7357/1998, 336 h); 1 µM (≈ 0.381 µg/mL) in the test on Mtb 7357/1998 (7357/1998, 504 h). The MIC with Mtb Praha 4 (PRAHA4, 336 h) came to 1 µM (≈ 0.381 µg/mL); in the test on Mtb Praha 4 (PRAHA4, 504 h) it was 1 µM (≈ 0.381 µg/mL); in the test with Mtb Praha 131 (PRAHA131, 336 h), 1 µM (≈ 0.381 µg/mL); in the test with Mtb Praha 131 (PRAHA131, 504 h), 1 µM (≈ 0.381 µg/mL); in the test with Mtb 8666/2010 (8666/2010, 336 h), 1 µM (≈ 0.381 µg/mL); in the test with Mtb 8666/2010 (8666/2010, 504 h), 1 µM (≈ 0.381 µg/mL). For the same compound, the MIC in the test on Mtb Praha 1 (PRAHA1, 336 h) turned out to be 1 µM (≈ 0.381 µg/mL); with Mtb Praha 1 (PRAHA1, 504 h), 1 µM (≈ 0.381 µg/mL).
On to `CCCCCCCCCNc1nnc(-c2cc([N+](=O)[O-])cc([N+](=O)[O-])c2)o1` [Compound 5i, 5-(3,5-Dinitrophenyl)-N-nonyl-1,3,4-oxadiazol-2-amine], for which the MIC in the test with Mtb 9449/2007 (9449/2007, 336 h) was 0.06 µM (≈ 0.0226 µg/mL); in the test on Mtb 9449/2007 (9449/2007, 504 h), 0.06 µM (≈ 0.0226 µg/mL); in the test with Mtb 234/2005 (234/2005, 336 h) it was 0.125 µM (≈ 0.0472 µg/mL); in the test on Mtb 234/2005 (234/2005, 504 h) it was 0.125 µM (≈ 0.0472 µg/mL); in the test on Mtb 7357/1998 (7357/1998, 336 h), 0.125 µM (≈ 0.0472 µg/mL); in the test on Mtb 7357/1998 (7357/1998, 504 h), 0.125 µM (≈ 0.0472 µg/mL). For the same compound, the MIC in the test with Mtb Praha 4 (PRAHA4, 336 h) was 0.125 µM (≈ 0.0472 µg/mL); with Mtb Praha 4 (PRAHA4, 504 h), 0.125 µM (≈ 0.0472 µg/mL); in the test on Mtb Praha 131 (PRAHA131, 336 h) it was 0.06 µM (≈ 0.0226 µg/mL); in the test with Mtb Praha 131 (PRAHA131, 504 h), 0.06 µM (≈ 0.0226 µg/mL); with Mtb 8666/2010 (8666/2010, 336 h) it was 0.06 µM (≈ 0.0226 µg/mL); in the test on Mtb 8666/2010 (8666/2010, 504 h), 0.06 µM (≈ 0.0226 µg/mL). In addition, the MIC worked out at 0.125 µM (≈ 0.0472 µg/mL) in the test with Mtb Praha 1 (PRAHA1, 336 h) and 0.125 µM (≈ 0.0472 µg/mL) in the test on Mtb Praha 1 (PRAHA1, 504 h).
`CCCCCCCCCCCCCNc1nnc(-c2cc([N+](=O)[O-])cc([N+](=O)[O-])c2)o1` [Compound 5m, 5-(3,5-Dinitrophenyl)-N-tridecyl-1,3,4-oxadiazol-2-amine]: the MIC in the test on Mtb 9449/2007 (9449/2007, 336 h) came out at 0.06 µM (≈ 0.026 µg/mL); in the test on Mtb 9449/2007 (9449/2007, 504 h) it was 0.125 µM (≈ 0.0542 µg/mL); with Mtb 234/2005 (234/2005, 336 h) it was 0.125 µM (≈ 0.0542 µg/mL); with Mtb 234/2005 (234/2005, 504 h) it was 0.125 µM (≈ 0.0542 µg/mL); with Mtb 7357/1998 (7357/1998, 336 h), 0.25 µM (≈ 0.108 µg/mL); with Mtb 7357/1998 (7357/1998, 504 h), 0.25 µM (≈ 0.108 µg/mL). The MIC in the test with Mtb Praha 4 (PRAHA4, 336 h) is 0.06 µM (≈ 0.026 µg/mL); in the test with Mtb Praha 4 (PRAHA4, 504 h), 0.125 µM (≈ 0.0542 µg/mL); in the test on Mtb Praha 131 (PRAHA131, 336 h), 0.125 µM (≈ 0.0542 µg/mL); with Mtb Praha 131 (PRAHA131, 504 h), 0.125 µM (≈ 0.0542 µg/mL); in the test on Mtb 8666/2010 (8666/2010, 336 h), 0.06 µM (≈ 0.026 µg/mL); with Mtb 8666/2010 (8666/2010, 504 h), 0.125 µM (≈ 0.0542 µg/mL). Further, the MIC with Mtb Praha 1 (PRAHA1, 336 h) was 0.125 µM (≈ 0.0542 µg/mL); in the test with Mtb Praha 1 (PRAHA1, 504 h), 0.125 µM (≈ 0.0542 µg/mL).
Regarding `CCCCCNc1nnc(-c2cc([N+](=O)[O-])cc([N+](=O)[O-])c2)o1` [Compound 5e, 5-(3,5-Dinitrophenyl)-N-pentyl-1,3,4-oxadiazol-2-amine], the MIC is 0.125 µM (≈ 0.0402 µg/mL) in the test on Mtb 9449/2007 (9449/2007, 336 h); 0.125 µM (≈ 0.0402 µg/mL) in the test on Mtb 9449/2007 (9449/2007, 504 h); 0.125 µM (≈ 0.0402 µg/mL) in the test with Mtb 234/2005 (234/2005, 336 h); 0.125 µM (≈ 0.0402 µg/mL) in the test with Mtb 234/2005 (234/2005, 504 h); 0.125 µM (≈ 0.0402 µg/mL) with Mtb 7357/1998 (7357/1998, 336 h); 0.125 µM (≈ 0.0402 µg/mL) in the test on Mtb 7357/1998 (7357/1998, 504 h). The MIC with Mtb Praha 4 (PRAHA4, 336 h) is 0.125 µM (≈ 0.0402 µg/mL); with Mtb Praha 4 (PRAHA4, 504 h), 0.5 µM (≈ 0.161 µg/mL); in the test with Mtb Praha 131 (PRAHA131, 336 h), 0.125 µM (≈ 0.0402 µg/mL); in the test on Mtb Praha 131 (PRAHA131, 504 h) it was 0.125 µM (≈ 0.0402 µg/mL); in the test on Mtb 8666/2010 (8666/2010, 336 h), 0.125 µM (≈ 0.0402 µg/mL); in the test on Mtb 8666/2010 (8666/2010, 504 h) it was 0.125 µM (≈ 0.0402 µg/mL). In addition, the MIC was 0.125 µM (≈ 0.0402 µg/mL) in the test on Mtb Praha 1 (PRAHA1, 336 h) and 0.25 µM (≈ 0.0803 µg/mL) in the test on Mtb Praha 1 (PRAHA1, 504 h).
As to `CCCCCCCNC(=O)NNC(=O)c1cc([N+](=O)[O-])cc([N+](=O)[O-])c1` [Compound 4g, 2-(3,5-Dinitrobenzoyl)-N-heptylhydrazine-1-carboxamide], the MIC is 1 µM (≈ 0.367 µg/mL) in the test on Mtb 9449/2007 (9449/2007, 336 h); 1 µM (≈ 0.367 µg/mL) in the test with Mtb 9449/2007 (9449/2007, 504 h); 1 µM (≈ 0.367 µg/mL) with Mtb 234/2005 (234/2005, 336 h); 2 µM (≈ 0.735 µg/mL) with Mtb 234/2005 (234/2005, 504 h); 1 µM (≈ 0.367 µg/mL) in the test on Mtb 7357/1998 (7357/1998, 336 h); 1 µM (≈ 0.367 µg/mL) in the test with Mtb 7357/1998 (7357/1998, 504 h). The MIC in the test on Mtb Praha 4 (PRAHA4, 336 h) came out at 1 µM (≈ 0.367 µg/mL); with Mtb Praha 4 (PRAHA4, 504 h), 1 µM (≈ 0.367 µg/mL); in the test with Mtb Praha 131 (PRAHA131, 336 h), 1 µM (≈ 0.367 µg/mL); in the test with Mtb Praha 131 (PRAHA131, 504 h) it was 2 µM (≈ 0.735 µg/mL); in the test on Mtb 8666/2010 (8666/2010, 336 h), 1 µM (≈ 0.367 µg/mL); in the test with Mtb 8666/2010 (8666/2010, 504 h), 1 µM (≈ 0.367 µg/mL). In addition, the MIC was determined as 1 µM (≈ 0.367 µg/mL) in the test with Mtb Praha 1 (PRAHA1, 336 h) and 2 µM (≈ 0.735 µg/mL) in the test on Mtb Praha 1 (PRAHA1, 504 h).
